{"source": "paper PMC4669759", "about": "(Cell Death & Disease, 2015)", "key": {"[1]": {"molecular_target": "T1, MCL-1–NOXA interactions (Homo sapiens, UniProt Q07820)", "T1 construct": "expressed in transfected cells; host or cells: HeLa cells stably expressing a GAL4-luciferase reporter", "T1 sequence (Q07820 whole entry, the tested form may be a part)": "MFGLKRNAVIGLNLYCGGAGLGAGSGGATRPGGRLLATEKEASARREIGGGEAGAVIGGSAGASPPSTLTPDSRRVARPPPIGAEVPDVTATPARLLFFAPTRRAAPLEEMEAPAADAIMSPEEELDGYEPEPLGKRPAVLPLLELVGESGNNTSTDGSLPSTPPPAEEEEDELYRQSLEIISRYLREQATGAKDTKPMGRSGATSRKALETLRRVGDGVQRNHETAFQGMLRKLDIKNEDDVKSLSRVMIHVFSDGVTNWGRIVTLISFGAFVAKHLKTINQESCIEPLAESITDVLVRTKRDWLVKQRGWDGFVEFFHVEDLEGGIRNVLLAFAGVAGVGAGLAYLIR", "assay": "Mammalian two-hybrid assay, MCL-1–NOXA, HeLa cells", "format": "cell-based", "details": "24 h, luciferase two-hybrid", "method": "(a) H929 cells were treated with increasing concentrations of A-1210477 for 4 h. […] All data represent the mean of triplicate experiments, with error bars indicating the S.D. (b) Quantitative measurement of protein–protein interactions using a luciferase-based mammalian two-hybrid assay. […] All data represent the means of triplicate experiments, with error bars indicating the S.Ds.\nHeLa cells stably expressing a GAL4-luciferase reporter were seeded into 10 cm dishes at 5 × 10^5 cells per plate. In all, 24 μg of a plasmid expressing both the ‘bait' and ‘prey' fusion proteins (GAL4DBD-BIM and VP16AD-BCL-2, GAL4DBD-BCL-XL and VP16AD- BCL-XS, or GAL4DBD-MCL-1 and VP16AD-NOXA, respectively) were mixed with 1.5 ml OptiMEM (Invitrogen). Separately, 24 μl Lipofectamine 2000 (Invitrogen) were mixed with 1.5 ml OptiMEM. Both solutions were incubated for 5 min (RT) and then mixed together for 20 min. Three milliliters of the mixture was added to cells in 12 ml culture medium lacking antibiotics, incubated at 37 °C for 24 h, and then transferred to 96-well plates at 20 000 cells per well. Compounds were added in half-log dilutions, starting from 1 μM and ending at 0.0001 μM for 24 h, and luciferase activity was assessed using ONE-Glo reagent (Promega). All data were plotted as the percentage of complex remaining relative to untreated controls."}, "[2]": {"tested_on": "H929 cells", "assay": "Cell viability, H929 cells", "format": "cell-based, human", "details": "H929, 48 h", "method": "Figure 4 Indole-2-carboxylic acids induce the hallmarks of apoptosis in MCL-1-dependent cancer cell line H929. (a) Digitonin-permeabilized H929 cells were treated with 10 μM BH3 peptides for 4 h, and intact H929 cells were incubated with increasing concentrations (0.1–10 μM) of A-1208746 for 4 h before assessing the levels of cytochrome c released into the cytosol. (b) H929 and RS4;11 cells were incubated with increasing concentrations of MCL-1 inhibitors or the BCL-2-selective inhibitor ABT-199 (venetoclax) for 48 h before determining cell viability. Cell killing IC50s are plotted with each value representing the mean of three separate experiments. Error bars represent the S.E.M. (c) H929 cells were incubated with increasing concentrations of MCL-1 inhibitors in the presence or absence of the pan-caspase inhibitor QVD (100 μM) for 4 h before assessing caspase-3/-7 activation, mitochondrial membrane polarization, and the exposure of phosphatidylserine. […]\nAdherent cell lines were seeded at 50 000 cells per well in 96-well plates and treated for 48 h with compounds diluted in half-log steps starting at 30 μM and ending at 0.001 μM. […] Effects on proliferation and viability were determined using CellTiter-Glo reagent from Promega (Madison, WI, USA) according to the manufacturer's instructions. IC50 values were determined by non-linear regression analysis of the concentration response data."}, "[3]": {"tested_on": "BxPC-3 cells", "assay": "Navitoclax / A-1210477 combination cell viability, BxPC-3 cells", "format": "cell-based", "details": "BxPC-3, 48 h", "method": "Figure 6 A-1210477 synergizes with navitoclax to kill hematological and solid tumor cell lines. BxPC-3, EJ-1, H23, and OPM-2 cells were treated with increasing concentrations of navitoclax in the presence or absence of increasing concentrations of A-1210477 for 48 h before assessing cell viability. All data points represent the means of triplicate experiments, with error bars indicating the S.E.M. TEXT PRINTED IN THE PICTURE: A-1210477 + navitoclax: Bliss sum (BxPC-3): 716; Bliss sum (EJ-1): 464; Bliss sum (H23): 76; Bliss sum (OPM-2): 946 DOUBTS OF THE COPYIST ABOUT THIS PICTURE: The Bliss sums apply to the combination of A-1210477 and navitoclax. The picture prints the two names separately (legend heading and axis title), not as one joined label.\n(§1) Adherent cell lines were seeded at 50 000 cells per well in 96-well plates and treated for 48 h with compounds diluted in half-log steps starting at 30 μM and ending at 0.001 μM. Multiple myeloma cell lines were seeded at 15 000–20 000 cells per well and treated similarly. Effects on proliferation and viability were determined using CellTiter-Glo reagent from Promega (Madison, WI, USA) according to the manufacturer's instructions. IC50 values were determined by non-linear regression analysis of the concentration response data."}, "[4]": {"tested_on": "H2110 cells", "assay": "Cell viability, H2110 cells", "format": "cell-based, human", "method": "Figure 5 A-1210477 kills MCL-1-dependent NSCLC cancer cell lines. NSCLC cell lines (a) H2110 or (c) H23 were transfected with a construct expressing the MCL1 CDS tagged with a Flag epitope or empty control vector. These cells were subsequently transfected with siRNAs targeting the MCL1 CDS, the MCL1 3′ UTRa or UTRb, or a scrambled control sequence. Cell viability was assessed 72 h later with MCL-1 and Flag immunoblots performed in parallel. (b) H2110 or (d) H23 cells were treated with increasing concentrations of A-1210477 for 72 h before assessing cell viability.\nas §1"}}, "note": "pEC50, pIC50: −log10 of the molar value."}
{"smiles": "Cc1nn(C)c(COc2ccc(N3CCN(S(=O)(=O)N(C)C)CC3)cc2)c1-c1cccc2c(CCCOc3cccc4ccccc34)c(C(=O)O)n(CCN3CCOCC3)c12", "note": "[A-1210477]", "values": [{"measurement": "pIC50", "setting": "[1]", "value": "~6.00"}, {"measurement": "cell killing IC50", "setting": "[2]", "value": "low-μM range"}, {"measurement": "potentiation of navitoclax", "setting": "[3]", "value": "substantially shifted the dose–response curve of navitoclax"}, {"measurement": "pIC50", "setting": "[4]; H2110", "value": "> 5.00"}, {"measurement": "pEC50", "setting": "[4]; H2110, 72 h", "value": 5.28}]}
